Assays:
[1] = molecular target: Serine/threonine-protein kinase LATS1 (Homo sapiens) (UniProt O95835); conditions: Compound concentration 1000.0 nM
[2] = molecular target: 5-hydroxytryptamine receptor 2B (Homo sapiens, UniProt P41595); conditions: Compound concentration 10.0 uM
[3] = molecular target: Serine/threonine-protein kinase STK11 (Homo sapiens) (UniProt Q15831); conditions: Compound concentration 1000.0 nM
[4] = molecular target: D(1B) dopamine receptor (Homo sapiens) (UniProt P21918); conditions: Compound concentration 10.0 uM
[5] = molecular target: Alpha-1B adrenergic receptor (Homo sapiens) (UniProt P35368); conditions: Compound concentration 10.0 uM
[6] = molecular target: Tyrosine-protein kinase SYK (Homo sapiens) (UniProt P43405); conditions: Compound concentration 1000.0 nM
[7] = molecular target: Activated CDC42 kinase 1 (Homo sapiens) (UniProt Q07912); conditions: Compound concentration 1000.0 nM
[8] = tested on: Epidermal growth factor receptor (Homo sapiens), P00533 [UNDEFINED MUTATION]; conditions: Compound concentration 1000.0 nM
[9] = molecular target: Microtubule-associated serine/threonine-protein kinase 1 (Homo sapiens) (UniProt Q9Y2H9); conditions: Compound concentration 1000.0 nM
[10] = molecular target: MAP kinase-activated protein kinase 2 (Homo sapiens) (UniProt P49137); conditions: Compound concentration 1000.0 nM
[11] = molecular target: Cyclin-dependent kinase 16 (Homo sapiens) (UniProt Q00536); conditions: Compound concentration 1000.0 nM
[12] = tested on: Tyrosine-protein kinase ABL1 (Homo sapiens), P00519 [Q252H]; conditions: Compound concentration 1000.0 nM
[13] = molecular target: Leukocyte tyrosine kinase receptor (Homo sapiens) (UniProt P29376); conditions: Compound concentration 1000.0 nM
[14] = tested on: Tyrosine-protein kinase ABL1 (Homo sapiens), P00519 [Q252H]; conditions: Compound concentration 1000.0 nM; remark: listed apart in the source
[15] = molecular target: Serine/threonine-protein kinase TNNI3K (Homo sapiens) (UniProt Q59H18); conditions: Compound concentration 1000.0 nM
[16] = molecular target: Serine/threonine-protein kinase Nek5 (Homo sapiens) (UniProt Q6P3R8); conditions: Compound concentration 1000.0 nM
[17] = tested on: Receptor-type tyrosine-protein kinase FLT3 (Homo sapiens), P36888 [D835Y]; conditions: Compound concentration 1000.0 nM
[18] = molecular target: Serine/threonine-protein kinase Nek2 (Homo sapiens) (UniProt P51955); conditions: Compound concentration 1000.0 nM
[19] = molecular target: Non-receptor tyrosine-protein kinase TYK2 (Homo sapiens) (UniProt P29597); conditions: Compound concentration 1000.0 nM
[20] = molecular target: 5'-AMP-activated protein kinase catalytic subunit alpha-2 (Homo sapiens) (UniProt P54646); conditions: Compound concentration 1000.0 nM
[21] = molecular target: Dual specificity mitogen-activated protein kinase kinase 5 (Homo sapiens) (UniProt Q13163); conditions: Compound concentration 1000.0 nM
[22] = molecular target: Dual specificity mitogen-activated protein kinase kinase 2 (Homo sapiens) (UniProt P36507); conditions: Compound concentration 1000.0 nM
[23] = molecular target: MAP kinase-interacting serine/threonine-protein kinase 2 (Homo sapiens) (UniProt Q9HBH9); conditions: Compound concentration 1000.0 nM
[24] = molecular target: T1, Muscarinic acetylcholine receptor M1 (Homo sapiens, UniProt P11229); assay: GPCRScan assay: inhibition of M1; set-up: radioligand conc. used [nm] 0.3 – 1.2, parental cells stable CHO
T1 sequence (P11229 whole entry): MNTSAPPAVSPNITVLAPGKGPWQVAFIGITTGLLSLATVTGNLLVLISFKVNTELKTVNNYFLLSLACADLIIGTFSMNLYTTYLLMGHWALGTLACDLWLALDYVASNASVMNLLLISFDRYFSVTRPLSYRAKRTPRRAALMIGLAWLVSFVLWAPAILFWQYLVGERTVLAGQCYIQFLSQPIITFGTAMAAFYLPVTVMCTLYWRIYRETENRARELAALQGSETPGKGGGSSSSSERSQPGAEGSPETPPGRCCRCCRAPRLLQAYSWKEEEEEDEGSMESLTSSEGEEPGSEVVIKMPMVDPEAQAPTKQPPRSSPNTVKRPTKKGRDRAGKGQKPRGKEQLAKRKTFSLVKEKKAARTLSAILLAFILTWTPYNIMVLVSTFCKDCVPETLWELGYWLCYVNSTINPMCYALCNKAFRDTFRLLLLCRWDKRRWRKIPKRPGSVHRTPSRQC

[25] = molecular target: Serine/threonine-protein kinase PAK 4 (Homo sapiens) (UniProt O96013); conditions: Compound concentration 1000.0 nM
[26] = tested on: Receptor-type tyrosine-protein kinase FLT3 (Homo sapiens), P36888 [D835H]; conditions: Compound concentration 1000.0 nM
[27] = molecular target: 1-phosphatidylinositol 3-phosphate 5-kinase (Homo sapiens) (UniProt Q9Y2I7); conditions: Compound concentration 1000.0 nM
[28] = molecular target: Serine/threonine-protein kinase ULK3 (Homo sapiens) (UniProt Q6PHR2); conditions: Compound concentration 1000.0 nM
[29] = molecular target: Serine/threonine-protein kinase 35 (Homo sapiens) (UniProt Q8TDR2); conditions: Compound concentration 1000.0 nM
[30] = molecular target: BDNF/NT-3 growth factors receptor (Homo sapiens) (UniProt Q16620); conditions: Compound concentration 1000.0 nM
[31] = molecular target: Dual specificity protein kinase CLK3 (Homo sapiens) (UniProt P49761); conditions: Compound concentration 1000.0 nM
[32] = molecular target: Serine/threonine-protein kinase MRCK alpha (Homo sapiens) (UniProt Q5VT25); conditions: Compound concentration 1000.0 nM
[33] = molecular target: Son of sevenless homolog 2 (Homo sapiens, UniProt Q07890, G12C)
[34] = molecular target: AP2-associated protein kinase 1 (Homo sapiens) (UniProt Q2M2I8); conditions: Compound concentration 1000.0 nM
[35] = molecular target: Mu-type opioid receptor (Homo sapiens, UniProt P35372); conditions: Compound concentration 10.0 uM
[36] = molecular target: Tyrosine-protein kinase receptor Tie-1 (Homo sapiens) (UniProt P35590); conditions: Compound concentration 1000.0 nM
[37] = molecular target: Cyclin-dependent kinase 4 (Homo sapiens) (UniProt P11802); conditions: Compound concentration 1000.0 nM

Sequence of Alpha-1B adrenergic receptor (Homo sapiens) (P35368 whole entry): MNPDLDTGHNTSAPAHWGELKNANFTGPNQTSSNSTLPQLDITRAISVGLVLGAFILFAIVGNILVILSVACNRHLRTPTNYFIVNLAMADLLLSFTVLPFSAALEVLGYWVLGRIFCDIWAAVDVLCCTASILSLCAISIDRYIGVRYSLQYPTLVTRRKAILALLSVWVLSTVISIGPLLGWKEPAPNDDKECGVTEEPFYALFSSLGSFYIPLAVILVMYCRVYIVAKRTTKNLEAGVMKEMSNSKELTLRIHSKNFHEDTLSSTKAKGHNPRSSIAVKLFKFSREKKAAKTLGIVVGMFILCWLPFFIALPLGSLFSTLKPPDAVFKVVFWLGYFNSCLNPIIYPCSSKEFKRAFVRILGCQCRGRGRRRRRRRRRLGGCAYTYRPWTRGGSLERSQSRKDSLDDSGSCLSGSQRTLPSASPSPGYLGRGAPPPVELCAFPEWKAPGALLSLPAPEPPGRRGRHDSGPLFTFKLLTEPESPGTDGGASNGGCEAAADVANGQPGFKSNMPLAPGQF
Sequence of Serine/threonine-protein kinase TNNI3K (Homo sapiens) (Q59H18 whole entry): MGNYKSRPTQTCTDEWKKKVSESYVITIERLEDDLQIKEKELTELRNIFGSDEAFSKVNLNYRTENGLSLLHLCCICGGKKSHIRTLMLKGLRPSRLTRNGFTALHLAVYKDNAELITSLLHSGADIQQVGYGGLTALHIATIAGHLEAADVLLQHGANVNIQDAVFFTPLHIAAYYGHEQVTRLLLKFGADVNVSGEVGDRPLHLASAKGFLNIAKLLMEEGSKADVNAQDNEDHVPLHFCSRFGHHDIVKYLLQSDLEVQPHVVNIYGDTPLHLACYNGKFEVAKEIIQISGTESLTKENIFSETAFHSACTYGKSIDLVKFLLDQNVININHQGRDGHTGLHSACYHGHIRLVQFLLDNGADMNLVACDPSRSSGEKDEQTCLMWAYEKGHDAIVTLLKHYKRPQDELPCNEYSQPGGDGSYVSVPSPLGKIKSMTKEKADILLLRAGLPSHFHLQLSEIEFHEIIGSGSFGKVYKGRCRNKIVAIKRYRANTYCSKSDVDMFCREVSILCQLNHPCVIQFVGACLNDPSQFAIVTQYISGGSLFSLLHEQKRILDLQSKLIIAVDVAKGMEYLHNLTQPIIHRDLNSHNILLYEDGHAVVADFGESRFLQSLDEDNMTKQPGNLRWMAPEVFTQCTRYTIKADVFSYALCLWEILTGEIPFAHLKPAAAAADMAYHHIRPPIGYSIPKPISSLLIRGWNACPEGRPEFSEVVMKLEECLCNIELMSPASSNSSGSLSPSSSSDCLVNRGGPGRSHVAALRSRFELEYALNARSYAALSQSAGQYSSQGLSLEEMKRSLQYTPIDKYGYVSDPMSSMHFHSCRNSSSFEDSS
Sequence of Dual specificity mitogen-activated protein kinase kinase 2 (Homo sapiens) (P36507 whole entry): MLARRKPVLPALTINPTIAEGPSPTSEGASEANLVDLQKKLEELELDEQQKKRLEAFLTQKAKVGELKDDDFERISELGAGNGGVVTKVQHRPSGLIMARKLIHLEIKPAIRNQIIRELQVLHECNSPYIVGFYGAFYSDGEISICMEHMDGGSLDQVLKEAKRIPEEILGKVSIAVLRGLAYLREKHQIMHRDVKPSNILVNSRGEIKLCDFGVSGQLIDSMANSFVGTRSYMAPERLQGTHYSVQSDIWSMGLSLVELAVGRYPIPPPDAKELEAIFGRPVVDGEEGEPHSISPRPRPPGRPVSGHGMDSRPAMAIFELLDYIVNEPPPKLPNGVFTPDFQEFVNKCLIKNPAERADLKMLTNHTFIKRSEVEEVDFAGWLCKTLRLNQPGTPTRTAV
Sequence of Serine/threonine-protein kinase STK11 (Homo sapiens) (Q15831 whole entry): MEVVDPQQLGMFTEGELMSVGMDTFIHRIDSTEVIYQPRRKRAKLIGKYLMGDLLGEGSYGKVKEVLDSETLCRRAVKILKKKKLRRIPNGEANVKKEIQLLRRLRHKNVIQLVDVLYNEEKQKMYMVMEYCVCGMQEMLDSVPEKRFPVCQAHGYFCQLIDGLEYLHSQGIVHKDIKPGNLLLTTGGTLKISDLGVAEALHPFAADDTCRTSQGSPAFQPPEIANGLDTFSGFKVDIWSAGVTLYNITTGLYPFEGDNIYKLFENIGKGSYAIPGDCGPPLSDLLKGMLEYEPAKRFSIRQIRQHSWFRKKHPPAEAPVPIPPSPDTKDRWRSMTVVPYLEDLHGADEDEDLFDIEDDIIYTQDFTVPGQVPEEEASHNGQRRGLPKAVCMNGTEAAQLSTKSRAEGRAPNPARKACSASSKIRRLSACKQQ
Sequence of AP2-associated protein kinase 1 (Homo sapiens) (Q2M2I8 whole entry, looked up): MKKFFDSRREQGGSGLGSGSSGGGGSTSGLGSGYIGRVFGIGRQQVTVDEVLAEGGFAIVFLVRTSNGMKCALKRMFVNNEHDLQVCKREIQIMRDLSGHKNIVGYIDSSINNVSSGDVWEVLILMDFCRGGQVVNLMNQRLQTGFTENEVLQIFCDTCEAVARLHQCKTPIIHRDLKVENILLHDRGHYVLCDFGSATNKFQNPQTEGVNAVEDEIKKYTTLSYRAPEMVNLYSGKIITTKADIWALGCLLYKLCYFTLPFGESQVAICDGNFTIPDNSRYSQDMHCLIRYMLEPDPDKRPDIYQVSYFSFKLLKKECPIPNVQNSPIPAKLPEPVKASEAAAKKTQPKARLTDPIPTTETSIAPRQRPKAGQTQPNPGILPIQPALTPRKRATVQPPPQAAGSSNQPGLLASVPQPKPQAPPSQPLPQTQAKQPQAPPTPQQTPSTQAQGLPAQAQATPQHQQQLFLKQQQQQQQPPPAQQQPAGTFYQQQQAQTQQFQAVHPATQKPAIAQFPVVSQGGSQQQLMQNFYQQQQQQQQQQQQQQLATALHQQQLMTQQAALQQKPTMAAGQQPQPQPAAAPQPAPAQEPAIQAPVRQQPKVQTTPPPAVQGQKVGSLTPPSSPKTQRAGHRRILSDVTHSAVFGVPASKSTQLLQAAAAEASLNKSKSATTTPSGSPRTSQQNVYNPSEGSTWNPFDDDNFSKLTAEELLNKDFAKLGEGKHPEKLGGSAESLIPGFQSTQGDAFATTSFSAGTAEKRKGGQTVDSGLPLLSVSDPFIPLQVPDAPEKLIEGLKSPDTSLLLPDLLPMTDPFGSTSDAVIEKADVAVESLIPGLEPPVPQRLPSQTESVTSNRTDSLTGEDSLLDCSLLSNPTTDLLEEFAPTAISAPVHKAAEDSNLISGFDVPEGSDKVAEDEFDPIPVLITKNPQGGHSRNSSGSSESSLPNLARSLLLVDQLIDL
Sequence of BDNF/NT-3 growth factors receptor (Homo sapiens) (Q16620 32-822 limits assumed): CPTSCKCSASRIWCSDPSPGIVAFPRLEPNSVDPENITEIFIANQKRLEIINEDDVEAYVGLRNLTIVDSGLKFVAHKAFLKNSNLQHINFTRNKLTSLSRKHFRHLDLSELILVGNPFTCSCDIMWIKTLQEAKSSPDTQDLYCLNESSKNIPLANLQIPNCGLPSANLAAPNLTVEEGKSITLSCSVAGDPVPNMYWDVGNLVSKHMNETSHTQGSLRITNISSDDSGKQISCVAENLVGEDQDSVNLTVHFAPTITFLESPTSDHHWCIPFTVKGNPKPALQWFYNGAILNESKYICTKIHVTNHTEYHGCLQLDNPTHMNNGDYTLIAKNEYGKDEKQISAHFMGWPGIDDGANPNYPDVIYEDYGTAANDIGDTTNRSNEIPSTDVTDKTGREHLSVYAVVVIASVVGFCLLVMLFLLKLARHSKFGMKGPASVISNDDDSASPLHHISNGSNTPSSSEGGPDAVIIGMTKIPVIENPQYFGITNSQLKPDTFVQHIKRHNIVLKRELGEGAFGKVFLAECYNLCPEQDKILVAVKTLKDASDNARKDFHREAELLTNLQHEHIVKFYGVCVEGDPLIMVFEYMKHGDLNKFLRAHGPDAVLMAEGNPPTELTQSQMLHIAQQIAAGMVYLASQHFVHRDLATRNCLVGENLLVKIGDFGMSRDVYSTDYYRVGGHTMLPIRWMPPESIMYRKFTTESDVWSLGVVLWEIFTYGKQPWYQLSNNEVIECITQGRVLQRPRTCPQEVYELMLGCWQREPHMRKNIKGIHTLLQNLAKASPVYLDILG
Sequence of Serine/threonine-protein kinase LATS1 (Homo sapiens) (O95835 whole entry): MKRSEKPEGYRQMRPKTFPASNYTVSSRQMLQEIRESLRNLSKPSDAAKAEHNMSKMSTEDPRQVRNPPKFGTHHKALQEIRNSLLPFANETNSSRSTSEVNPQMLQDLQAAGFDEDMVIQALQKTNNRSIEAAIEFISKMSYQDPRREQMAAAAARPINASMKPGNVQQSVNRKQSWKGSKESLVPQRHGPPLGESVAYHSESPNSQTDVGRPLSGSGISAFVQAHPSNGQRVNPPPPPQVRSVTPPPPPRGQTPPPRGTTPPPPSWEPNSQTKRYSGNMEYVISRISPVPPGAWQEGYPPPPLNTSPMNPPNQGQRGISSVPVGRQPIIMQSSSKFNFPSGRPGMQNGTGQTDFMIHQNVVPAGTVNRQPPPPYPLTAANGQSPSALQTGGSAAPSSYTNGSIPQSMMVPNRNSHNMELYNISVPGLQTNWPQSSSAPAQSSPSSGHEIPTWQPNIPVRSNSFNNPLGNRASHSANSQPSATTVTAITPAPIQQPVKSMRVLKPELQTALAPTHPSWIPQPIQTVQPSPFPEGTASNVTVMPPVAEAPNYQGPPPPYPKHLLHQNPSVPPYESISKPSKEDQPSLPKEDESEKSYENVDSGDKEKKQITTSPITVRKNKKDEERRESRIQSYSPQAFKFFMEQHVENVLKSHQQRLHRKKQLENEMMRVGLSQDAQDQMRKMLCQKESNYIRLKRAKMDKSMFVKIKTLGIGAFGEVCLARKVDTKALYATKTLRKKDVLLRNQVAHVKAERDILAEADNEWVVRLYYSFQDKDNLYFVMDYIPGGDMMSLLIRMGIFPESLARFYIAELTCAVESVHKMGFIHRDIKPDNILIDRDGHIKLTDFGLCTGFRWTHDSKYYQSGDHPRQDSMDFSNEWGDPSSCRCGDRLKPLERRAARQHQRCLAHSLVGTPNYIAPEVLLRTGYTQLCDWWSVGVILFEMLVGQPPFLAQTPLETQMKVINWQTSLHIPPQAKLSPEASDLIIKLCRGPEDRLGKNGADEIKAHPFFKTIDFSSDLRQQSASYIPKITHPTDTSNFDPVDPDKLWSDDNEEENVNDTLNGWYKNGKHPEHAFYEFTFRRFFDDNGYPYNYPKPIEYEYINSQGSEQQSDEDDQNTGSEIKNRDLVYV

CNCc1ccccc1-c1csc([C@@H](C)Nc2nc(C)nc3cc(OC)c(OC)cc23)c1 [BAY-293]
209 nM: Ki ([24]; read-out: pKi (converted))
> 20000 nM (not active): IC50 [33]
238 nM: Ki ([24]; read-out: Ki)
inactive: residual activity [1] 100% | residual activity [3] 96% | inhibition [4] 32.5% | residual activity [6] 100% | residual activity [7] 100% | residual activity [8] 50% | residual activity [9] 76% | residual activity [10] 83% | residual activity [11] 87% | residual activity [12] 85% | residual activity [13] 97% | residual activity [14] 69% | residual activity [15] 100% | residual activity [16] 99% | residual activity [17] 84% | residual activity [18] 92% | residual activity [19] 99% | residual activity [20] 97% | residual activity [21] 91% | residual activity [22] 82% | residual activity [23] 63% | residual activity [25] 97% | residual activity [26] 55% | residual activity [27] 100% | residual activity [28] 78% | residual activity [29] 91% | residual activity [30] 88% | residual activity [31] 100% | residual activity [32] 67% | residual activity [34] 95% | inhibition [35] 46.8% | residual activity [36] 100% | residual activity [37] 88%
active: inhibition [2] 86.9% | inhibition [5] 85.8%

CNCc1ccccc1-c1csc([C@H](C)Nc2nc(C)nc3cc(OC)c(OC)cc23)c1 [BAY-294]
> 20000 nM (not active): IC50 [33]
inactive: residual activity [1] 100% | residual activity [3] 100% | inhibition [4] 36.6% | residual activity [6] 100% | residual activity [7] 100% | residual activity [8] 64% | residual activity [9] 96% | residual activity [10] 80% | residual activity [11] 83% | residual activity [12] 84% | residual activity [13] 98% | residual activity [14] 76% | residual activity [15] 100% | residual activity [16] 100% | residual activity [17] 100% | residual activity [18] 92% | residual activity [19] 100% | residual activity [20] 100% | residual activity [21] 87% | residual activity [22] 100% | residual activity [23] 71% | residual activity [25] 100% | residual activity [26] 74% | residual activity [27] 100% | residual activity [28] 88% | residual activity [29] 100% | residual activity [30] 98% | residual activity [31] 100% | residual activity [32] 92% | residual activity [34] 94% | residual activity [36] 100% | residual activity [37] 77%
active: inhibition [2] 97.3% | inhibition [5] 94.7% | inhibition [35] 67.3%
314 nM: Ki ([24]; read-out: Ki)
224 nM: Ki ([24]; read-out: pKi (converted))

Source: ChEMBL document CHEMBL4507273 (2021)
